Assay results reported in patent publication US9963433B2, “Anticancer drugs including the chemical structures of an androgen receptor ligand and a histone deacetylase inhibitor” (Wayne State University, priority 2016, dated 2018).

Assays:
Type in all cases: cell-based
DLC1 mRNA in LNCaP cells = experiment: In situ HDACi activity: DLC1 mRNA in LNCaP cells; conditions: 10 μM, 48 h, normalized to GAPDH mRNA, FIG. 2E
Description: (§1) FIGS. 2A-2F show measurement of intrinsic and in situ HDACi activities. […]. IC50 values were calculated from nonlinear regression plots using GraphPad Prism5 software. (2B) Enz, 1002 and 3-52 were tested against HeLa cell nuclear extract at 10 μM and 25 μM and TSA (1 μM) was used as positive control. […] Recombinant HDAC6 was incubated with each drug at the indicated concentrations. IC50 values were calculated from nonlinear regression plots using GraphPad Prism5 software. (2D) Enz, 1002 and 3-52 were tested against recombinant HDAC6 at 10 μM and 25 μM and TSA (1 μM) was used as positive control. […]
(§2) Cell Culture and Reagents. LNCaP and 22Rv1 cell lines were from American Type Culture Collection (Manassas, Va.). C4-2 cells were kindly provided by Dr. Edwin Sanchez (University of Toledo). LNCaP and C4-2 cells were routinely grown at 37° C. in 5% CO2 in RPMI 1640 medium supplemented with 10% FBS (Invitrogen); 100 units/ml penicillin, 100 μg/ml streptomycin, 2 mM L-glutamine mixture (Invitrogen); and sodium pyruvate (1 mM) (Invitrogen). 22Rv1 cells were grown in RPMI 1640 medium supplemented with 10% FBS (Invitrogen); 100 units/ml penicillin, 100 μg/ml streptomycin, 2 mM L-glutamine mixture (Invitrogen). Affinity-purified rabbit anti-human antibody to AR (sc-816) and mouse anti-human antibody to GAPDH (sc-47724) were purchased from Santa Cruz Biotechnology (Santa Cruz, Calif.). Affinity-purified rabbit anti-human antibody to Hsp90 (C45G5) #4877 and rabbit anti-human antibody to acetylated lysine #9441 were purchased from Cell Signaling Technology. R1881 was kindly provided by Dr. Stephan Patrick (Karmanos Cancer Institute). All experiments were conducted using phenol-red free growth media. For hormone depletion, cells were grown in phenol-red free RPMI 1640 medium supplemented with 10% charcoal stripped FBS (Sigma-Aldrich) which was heat inactivated at 56° C. for thirty minutes, and a mixture of 100 units/ml penicillin, 100 μg/ml streptomycin and 2 mM L-glutamine for 96 h.
(§3) RNA isolation, Reverse Transcription, and Real Time PCR. Total RNA was isolated from cells using the RNeasy Mini Kit (Qiagen). Reverse transcription PCR was then performed using 500 ng of total RNA with random primers and using the high-capacity complementary DNA Archive kit (Applied Biosystems). The complementary DNA from this reaction was measured using quantitative real time PCR using the StepONE Plus Real Time PCR system (Life Technologies Corporation, Carlsbad, Calif.). All reactions were performed in triplicate and normalized to glyceraldehyde-3-phosphate-dehydrogenase values in the same samples. All primers and Taqman probes were purchased from the applied Biosystems inventory (Invitrogen) (Patki et al., 2015).
. […]

DLC1 mRNA in C4-2 cells = experiment: In situ HDACi activity: DLC1 mRNA in C4-2 cells; conditions: 48 h, normalized to GAPDH mRNA, FIG. 2F
Description: as §1, §2, §3
. […]

22Rv1 cells = experiment: MTT cell viability assay, 22Rv1 cells; conditions: Day 3, 0.1 μM-10 μM, FIG. 6E; for EC50: Homo sapiens, 22Rv1, 72 h, read-out: EC50, inhibition of growth of 22Rv1 cells
Description: (6A) C4-2 cells were seeded in 96-well plates and 24 h later, they were treated with the indicated compounds (0.1 μM-10 μM) or with vehicle (DMSO). Cell viability was measured by the MTT assay on Days 0 and 3 of treatment. EC50 values were calculated from nonlinear regression plots using GraphPad Prism5 software. […] Cell viability was measured by the MTT assay on Days 0 and 3 of treatment. […] Cell viability was measured by the MTT assay on Days 0 and 3 of treatment. […] (6D) 22Rv1 cells were infected with AR shRNA lentivirus, or control shRNA. 72 h after infection, cells were plated and viable cells were measured by the MTT assay on the indicated days (6D, bottom). Cells were also harvested for western blot analysis and probed with antibody to AR, which was also reactive with the AR splice variant AR-V7 (6D, top). (6E) 22Rv1 cells were seeded in 96-well plates and 24 h later, they were treated with the indicated compounds (0.1 μM-10 μM) or with vehicle (DMSO). Cell viability was measured by the MTT assay on Days 0 and 3 of treatment. EC50 values were calculated from nonlinear regression plots using GraphPad Prism5 software.
Cell Proliferation Assay. Cells were trypsinized and 6000 cells/well were seeded in 96-well plates coated with poly-D-lysine. The cells were seeded in phenol red-free medium supplemented with 10% FBS, 100 units/ml penicillin, 100 μg/ml streptomycin, 2 mM L-glutamine mixture and sodium pyruvate (1 mM) for C4-2 cells and phenol red-free medium supplemented with 10% FBS, 100 units/ml penicillin, 100 μg/ml streptomycin and 2 mM L-glutamine mixture for 22Rv1 cells. The cells were grown at 37° C. in 5% CO2. Twenty four hours after seeding in the 96-well plates, the cells were treated with indicated compound or DMSO (vehicle). The culture medium was not changed during the time course of the assay. On Day zero and on Day 3, cell viability was determined using the MTT assay. MTT (10 μL, 5 mg/mL) was added to each well and incubated for 2 h at 37° C. The formazan crystal sediments were dissolved in 100 μL of DMSO, and the absorbance at 570 nm was measured using the BioTek Synergy 2 Microplate Reader (BioTek, Winooski, Vt.). […] IC50 values were calculated from nonlinear […] plots using GraphPad Prism5 software.

Compound	DLC1 mRNA expression (DLC1 mRNA in LNCaP cells)	DLC1 mRNA expression (DLC1 mRNA in C4-2 cells)	effect on growth of 22Rv1 cells (22Rv1 cells)	EC50 (22Rv1 cells) [µM]
CNC(=O)c1ccc(N2C(=S)N(c3ccc(C#N)c(C(F)(F)F)c3)C(=O)C2(C)C)cc1F [Enz, Enzalutamide, reference compound]	had no effect	had no effect	not	
CC1(C)C(=O)N(c2ccc(C#N)c(C(F)(F)F)c2)C(=S)N1c1ccc(C(=O)NCCCCCCC(=O)NO)c(F)c1 [Compound 2-75, 4-(3-(4-cyano-3-(trifluoromethyl)phenyl)-5,5-dimethyl-4-oxo-2-thioxoimidazolidin-1-yl)-2-fluoro-N-(7-(hydroxyamino)-7-oxoheptyl)benzamide]	poor inducers of DLC1 mRNA compared with SAHA	poor inducers of DLC1 mRNA compared with SAHA		4.68
CC1(C)C(=O)N(c2ccc(C#N)c(C(F)(F)F)c2)C(=S)N1c1ccc(/C=C/C(=O)NO)c(F)c1 [Compound 1005, (E)-3-(4-(3-(4-cyano-3-(trifluoromethyl)phenyl)-5,5-dimethyl-4-oxo-2-thioxoimidazolidin-1-yl)-2-fluorophenyl)-N-hydroxyacrylamide]	poor inducers of DLC1 mRNA compared with SAHA	poor inducers of DLC1 mRNA compared with SAHA		4.17
